Reference: article PMC6858451, “Rhesus Theta Defensin 1 Promotes Long Term Survival in Systemic Candidiasis by Host Directed Mechanisms” (Scientific Reports, 2019)
≈ marks a conversion by molar mass, not a printed value.

Key:
[1] = tested on: clinical isolate of C. albicans; conditions: 10 mg/kg i.p. daily beginning 24 h after infection; cited from earlier work
Excerpt: Despite the remarkable in vitro properties of HDPs, efforts to develop them as therapeutics have met with limited success. Barriers encountered include lack of peptide stability, toxicity, adverse proinflammatory properties, and poor bioavailability.

C. albicans 43001 = assay: MIC/MFC, broth microdilution (modified CLSI M27-A2); format: cell-based
Method: (§1) C. albicans strains were tested against RTD-1, fluconazole, and caspofungin in microdilution broth in accordance with Clinical and Laboratory Standards Institute (CLSI) document M27-A2 with the exception that 25 mM MOPS was used in place of 165 mM MOPS, as described previously. Overnight cultures were harvested by centrifugation, washed twice with Ca^2+ and Mg^2+-free PBS, pH 7.2, and suspended in test medium (RPMI 1640 medium, 25 mM MOPS, 2 mM L-glutamine) at 10^4 CFU/ml[62]. Incubations were conducted in flat bottom, 96-well microtiter plates (Greiner bio-one, Monroe, NC) containing 0.2 ml test medium per well. Duplicate 0.1 ml aliquots of serial two-fold dilutions of peptides and antifungal drugs were dispensed into wells, each of which was inoculated with 0.1 ml of fungal cell suspension containing 1 × 10^3 CFU. Plates were incubated at 30 °C for 48 hours after which A600 was determined using a SpectraMax M5e plate reader.
(§2) Minimal fungicidal concentration (MFC) was determined by plating, on YPD plates, 10 µl from wells in MIC assay without cell growth and the first well with measurable turbidity as described[63]–[66] and corresponding aliquots from the no-agent controls. […] MFC is reported as the lowest concentration of peptide or antifungal drug that killed ≥99% of the input organisms.
(§3) MICs and MFCs of RTD-1 were also performed in the presence of 50% mouse serum. Serum was prepared from blood collected by cardiac puncture from BALB/c mice. After coagulation at room temperature, serum was collected by centrifugation (200 g for 10 min followed by 23,000 g for 15 min), and diluted with an equal volume of yeast inoculum in MIC test medium described above.

C. albicans 53264 [2] = assay: as above; format: cell-based
Method: as §1, §2, §3

C. albicans SC5314 [3] = assay: as above; format: cell-based; conditions: Candida albicans
Method: as §1, §2, §3

[4] = tested on: C. albicans 53264 biofilms; assay: Biofilm XTT metabolic assay; format: cell-based; conditions: pre-adhesion, 2 h adherent and 24 h mature biofilms
Method: (§4) The antifungal activities of RTD-1, caspofungin and fluconazole were evaluated against biofilms of C. albicans SC5314 and 53264 essentially as described by Pierce et al.[67]. Briefly, biofilms established for 0 h (preadhesion), 2 h (adherent), or 24 h (mature) were developed by adding 1 × 10^5 yeast cells in 50 or 100 µl of RPMI-1640 to wells of flat-bottom 96-well microtiter plates (Costar, Corning, NY). Fifty or 100 µl aliquots of serial 2-fold dilutions of peptide or antifungal drugs were added to wells in triplicate and incubated for 24 h or 48 h prior to analysis of biofilm metabolic activities. Concentrations of reagents used were as follows: RTD-1 - 0.09 – 100 µg/ml (0.05–48 µM), Fluco – 1–250 µg/ml (3.3–816.3 µM); Caspo- 0.003–8 µg/ml ([…]–7.3 µM). Analysis of the effect of each agent on Candida biofilms was performed using an XTT colorimetric assay. One hundred µl of 1 µM XTT/menadione added to each biofilm well, plates were incubated in the dark for 3 h at 37 °C, and 80 µl of supernatant was transferred to a new 96-well flat-bottom microtiter plate (Greiner Bio-one, Monroe, NC). Absorbance was measured at 490 nm on a SpectraMax® i3x (Molecular Devices). Readings were plotted as average of triplicates after subtracting the corresponding values for negative controls (XTT/menadione only).

[5] = tested on: C. albicans SC5314 biofilms; assay: Biofilm XTT metabolic assay; format: cell-based; conditions: pre-adhesion conditions
Method: as §4

C. albicans SC5314 [6] = assay: Systemic candidiasis model, survival and renal fungal burden; format: in vivo, BALB/c mice
Method: The efficacy of RTD-1 in vivo was evaluated in an established model of systemic candidiasis using C. albicans SC5314. Both immunocompetent and immunosuppressed mouse models are employed in preclinical studies of systemic candidiasis. Since many of our preliminary studies employed the […] model, we conducted efficacy studies with RTD-1 and reference antifungal drugs in immunocompetent BALB/c mice. Mice were challenged i.v. with 3 × 10^5 blastospores at T = 0, which rapidly produces disseminated candidiasis and colonizes major organs in a manner resembling systemic candidiasis in humans. […] We analyzed the effect of a single 5 mg/kg dose of RTD-1 administered i.v., s.c., or i.p. immediately after i.v. fungal challenge, with i.p. saline as vehicle control. Fluco and Caspo, administered i.p. at 5 mg/kg, were used as drug comparators. […] In subsequent studies, antifungal agents were administered i.p. to circumvent potentially confounding effects resulting from treatment by the same route as infection, which was i.v. in all experiments.
(§5) BALB/c female mice (7–8 weeks old) and CD-1 female mice (4–5 weeks old) were obtained from Charles River Laboratories and allocated randomly in groups of five mice per cage. Mice were maintained on a 12 h light/dark cycle in thermostatically controlled rooms for the duration of the experiment. C. albicans inocula were prepared fresh each day from saturated cultures grown overnight in YPD medium, washed in sterile PBS, and fungi were counted with hemocytometer. Stock suspensions were prepared in sterile PBS. BALB/c mice were challenged with 2 × 10^6 CFU/ml wild-type C. albicans reference strain SC5314, while CD-1 mice were challenged with 1.8 × 10^7 CFU/ml (0.15–0.2 ml) C. albicans clinical isolate 53264 by i.v. injection into the lateral caudal tail vein using a 28 G 1/2 inch needle. Animals were treated by i.v., s.c., or i.p. routes immediately post-infection (p.i.) or 24 h p.i. with sterile saline (control), RTD-1, fluconazole, or caspofungin administered at the concentrations indicated in a 0.200 ml. Mice were weighted and monitored daily for general clinical condition. Mice were euthanized as approved by the USC IACUC and in compliance with the National Institutes of Health Guide for the Care and Use of Laboratory Animals. All experiments were repeated at least three times.
(§6) To assess systemic fungal clearance, renal fungal burden was determined. Mice were euthanized at times indicated, and both kidneys were weighed, homogenized in 5 ml of sterile PBS, and serial dilutions of homogenate were plated on YPD agar plates and incubated at 30 °C for 2 days. CFU per gram of kidney was calculated.

C. albicans 53264 [7] = assay: Systemic MDR candidiasis model, survival and renal fungal burden; format: in vivo, CD-1 mice; conditions: 5 mg/kg i.p. once per day for 7 days beginning 24 h p.i.; 1.8 × 10^7 blastospores i.v.; 40 days
Method: (as in Fig. 3d). CD-1, rather than BALB/c mice were used in the C. albicans 53264 challenge studies as this mouse strain was employed by Wiederhold et al. in the assessment of caspofungin efficacy against this pathogen. […] Fungal burdens were determined in kidneys of long term survivors in the RTD-1, Caspo, and Fluco-treated cohorts (euthanized at day 40) and from moribund mice from the survival study in Fig. 7a.
as §5, §6

IDR-1018
renal fungal burden [1]: similarly modest reduction in renal fungal burden
survival [1]: modestly improved survival up to 8 days p.i.

OC(Cn1cncn1)(Cn1cncn1)c1ccc(F)cc1F [Fluco, fluconazole]
MIC (C. albicans 43001; Candida albicans, 43001, 48 h): > 256 µg/mL
MFC (C. albicans 43001; Candida albicans, 43001, RPMI, plating of MIC wells on YPD, ≥99% killing of input inoculum): > 256 µg/mL
MIC (C. albicans 53264 [2]; Candida albicans, 53264, 48 h): > 256 µg/mL
MFC (C. albicans 53264 [2]; Candida albicans, 53264, RPMI, plating of MIC wells on YPD, ≥99% killing of input inoculum): > 256 µg/mL
MIC (C. albicans SC5314 [3]; RPMI 1640, 25 mM MOPS, 2 mM L-glutamine, 1 × 10^3 CFU/well, 30 °C, 48 h, A600, complete inhibition of growth, duplicate): 64 µg/mL (≈ 209 µM)
MFC (C. albicans SC5314 [3]; RPMI, plating of MIC wells on YPD, ≥99% killing of input inoculum): > 256 µg/mL
biofilm inhibition (XTT) [4]: highly resistant
biofilm inhibition (XTT) [5]: more effective than RTD-1 at concentrations below 50 µg/ml
survival (C. albicans SC5314 [6]; 5 mg/kg i.p. once a day for 7 days, first dose 24 h after infection, 30 d): markedly enhanced survival
survival (C. albicans SC5314 [6]; single 5 mg/kg dose at T = 0 (RTD-1 i.v., s.c. or i.p.; Fluco, Caspo i.p.), 3 × 10^5 blastospores i.v., 30 days, vs saline): effective in enhancing survival
survival (log-rank) (C. albicans 53264 [7]): significantly (P < 0.0001) improved survival
